Patent US20240285599A1, “Mature-Hepatocyte Transdifferentiation Suppressing Composition” (OSAKA UNIVERSITY, priority 2021, published 2024)

What was measured:
[1] = system: human cholangiocarcinoma cell line KKU213; test: Cell proliferation assay (IncuCyte) of cholangiocarcinoma cell line KKU213; assay type: cell-based
Procedure: A human hepatoma cell line HepG2, and human cholangiocarcinoma cell lines HuCCT1, HuCCA1, and KKU213 were obtained from the JCRB Cell Bank. The HepG2 and KKU213 cells were cultured in a Dulbecco's modified Eagle's medium (DMEM; Nacalai Tesque, Inc., Japan) having added thereto 10% heat-inactivated fetal calf serum (FCS; Gibco, USA). The HuCCT1 cells were cultured in an RPMI medium (Nacalai Tesque, Inc., Japan) containing 10% FCS. The HuCCA1 cells were cultured in D-MEM/Ham's F-12 (containing L-glutamine and phenol red) (Wako Pure Chemical Industries, Ltd., Japan) having added thereto 10% FCS. All the cells were cultured with a CO2 incubator at 37° C. The cells were detached with trypsin (Nacalai Tesque, Inc., Japan), and were passaged. Those cells were routinely examined for mycoplasma.
The transfection of siRNA or a plasmid into cells was performed with Lipofectamine RNAiMAX Transfection Reagent (Thermo Fisher Scientific, Inc., USA) or Lipofectamine 2000 (Thermo Fisher Scientific, Inc., USA), respectively, and with Opti-MEM (Thermo Fisher Scientific, Inc., USA). The transfection of the siRNA was performed as follows: the cells were dispersed at a concentration of 100,000 cells/mL; 10 μM of the siRNA was mixed into 100 μL of the Opti-MEM at a ratio of 1 μL, and the mixture was left at rest for 5 minutes; and then 3 μL of the RNAiMAX was mixed into the mixture, and the whole was left at rest for 15 minutes, followed by administration to the supernatant of the previously dispersed cells. Further, a medium change was performed 24 hours thereafter.
Hepatocytes or cholangiocarcinoma cells were inoculated on a 96-well plate, and their cell proliferation was analyzed with IncuCyte (trademark) Si (Sartorius AG, Germany) in accordance with the manufacturer's instructions.
Two kinds of NIK siRNA (the NIK KD #1 and the NIK KD #2) were introduced into each of human cholangiocarcinoma cell lines HuCCT1, HuCCA1, and KKU213 to knock down MAP3K14 (NIK). […]

[2] = system: L-Traf3/PtenDKO mouse; test: Oral NIKSMI in L-Traf3/PtenDKO mouse: liver HE staining, KRT19 immunostaining and KRT19 expression; assay type: in vivo; conditions: twice a day, 200 mg/kg
Procedure: A histopathological slide was deparaffinized with xylene and ethanol. HE staining was performed with hematoxylin and eosin. In immunostaining, antigen activation was performed by heating in Target Retrieval Solution (Dako, USA), followed by blocking with bovine serum albumin and a reaction through use of a primary antibody at 4° C. overnight. A frozen section was dried at room temperature, and was blocked with BSA (Nacalai Tesque, Inc., Japan), followed by a reaction through use of a primary antibody in VECTASTAIN ABC Rabbit IgG Kit (Vector Laboratories, Inc., USA). DAB Substrate Kit (Vector Laboratories, Inc., USA) was used in a staining reaction. The following antibodies were used in the immunostaining: KRT19 (1:500 Abcam, ab52625), TRAF3 (1:100 Abcam, ab217033), NIK (1:400 Novus Biologicals, NBP2-23603), p-RIP3K (1:100 Genentech), and KI67 (1:1,000 Cell Signaling, #12202S). […] The number of Ki67-positive cells in a tumor was counted with ImageJ (Fiji). The immunostaining score of TRAF3 or NIK was calculated by multiplying a staining intensity (of from 0 to 3) by a stained area (%). Human ICC patients were grouped into two groups on the basis of the median immunostaining score of TRAF3 or NIK, and were evaluated for their disease-free survival (DFS) or overall survival (OS). […]

Compound | proliferation of cholangiocarcinoma cells ([1]; NIK siRNA introduced, FIG. 20) | proliferation of cholangiocarcinoma cells ([1]; 9 μM or 15 μM added at beginning of culture, FIG. 21C) | overgrowth of a cholangiocyte in liver (HE staining, KRT19 immunostaining) ([2]; 14 days from age 4 weeks, liver at 6 weeks, FIG. 15A) | expression level of the bile duct marker KRT19 in the liver ([2]; 14 days, FIG. 15B)
NIK KD #1: siRNA of NIK, SEQ ID NO: 2 (sense) and 3 (antisense), from Thermo Fisher Scientific (sense CAAACGCAAAGAGCAAGAAUU; antisense UUCUUGCUCUUUGCGUUUGCA; listed as RNA, chemistry not given here) | significantly suppressed |  |  | 
NIK KD #2: siRNA of NIK, SEQ ID NO: 4 (sense) and 5 (antisense), from Thermo Fisher Scientific (sense GCAAAGAGCAAGAACCAAAUU; antisense UUUGGUUCUUGCUCUUUGCGU; listed as RNA, chemistry not given here) | significantly suppressed |  |  | 
COc1cc(C(N)=O)nc(-c2cccc(C#C[C@]3(O)CCN(C)C3=O)c2)c1 [NIKSMI, (R)-6-(3-((3-hydroxy-1-methyl-2-oxopyrrolidin-3-yl)ethynyl)phenyl)-4-methoxypicolinamide] |  | significantly suppressed | significantly suppressed | significantly suppressed
